# Active and inactive are the calls of the source. The rule behind the calls is not given here.
# Tests used:
# [1] = target: Cyclin-dependent kinase 4/cyclin D1 (Homo sapiens, UniProt P11802); assay: Inhibition of CDK4/CyclinD1 (unknown origin) by ADP-Glo assay; type: protein-complex assay
# [2] = Solubility of the compound in water at pH 7.4; type: physicochemical
# [3] = system: MV4-11; assay: Induction of apoptosis in human MV4-11 cells assessed as viable cells at 0.5 uM incubated for 24 hrs by AnnexinV-FITC/PI staining based flow cytometry (reference value: 93.4%); type: functional; details: read-out: Activity
# [4] = system: MV4-11; assay: Induction of cell cycle arrest in human MV4-11 cells assessed as accumulation of cells at S phase at 0.4 uM incubated fo 36 hrs by propidium iodide staining based flow cytometry (reference value: 26.5%); type: functional
# [5] = system: MV4-11; assay: Antitumor activity against human MV4-11 cells xenografted in BALB/c mouse assessed as inhibition of tumor growth at 15 mg/kg, iv qd and measured every 2 days; type: functional; details: MV4-11, 48 h, read-out: TGI
# [6] = system: BT-549; assay: Antiproliferative activity against human BT-549 cells assessed as reduction in cell viability measured after 72 hrs; type: functional, cell-based; details: BT-549, 72 h
# [7] = target: Cyclin-dependent kinase 9 (Homo sapiens) (UniProt P50750); assay: Inhibition of CDK9 in human MV4-11 cells assessed as reduction in RNA polymerase 2 phosphorylation at Ser2 residue incubated for 12 hrs by western blot analysis; type: cell-based; details: dose 0.1-4 µM
# [8] = target: Mitogen-activated protein kinase kinase kinase kinase 2 (Homo sapiens) (UniProt Q12851); assay: Inhibition of wild type partial length human MAP4K2 (1 to 318 residues) expressed in mammalian expression system at 1 uM by KINOMEscan analysis
# [9] = system: MV4-11; assay: Antiproliferative activity against human MV4-11 cells assessed as reduction in cell viability measured after 72 hrs; type: functional, cell-based; details: MV4-11, 72 h
# [10] = target: CDK9/cyclin T1 (Homo sapiens, UniProt P50750); assay: Inhibition of CDK9/CyclinT1 (unknown origin) by ADP-Glo assay; type: protein-complex assay
# [11] = system: MV4-11; assay: Induction of apoptosis in human MV4-11 cells assessed as necrotic cells at 1 uM incubated for 24 hrs by AnnexinV-FITC/PI staining based flow cytometry (reference value: 0%); type: functional
# [12] = target: Dual specificity mitogen-activated protein kinase kinase 5 (Homo sapiens) (UniProt Q13163); assay: Inhibition of wild type partial length human MEK5 (98 to 448 residues) expressed in mammalian expression system at 1 uM by KINOMEscan analysis
# [13] = target: CDK7/Cyclin H/MNAT1 (Homo sapiens, UniProt P50613); assay: Inhibition of CDK7/Cyclin H/MAT1 (unknown origin) by ADP-Glo assay; type: protein-complex assay
# [14] = Metabolic stability of the compound in rat plasma at 10 uM measured for 60 mins by LC-MS/MS analysis; type: ADME, cell-free; details: 1 h
# [15] = system: HepG2; assay: Antiproliferative activity against human HepG2 cells assessed as reduction in cell viability measured after 72 hrs; type: functional, cell-based; details: HepG2, 72 h
# [16] = system: A549; assay: Antiproliferative activity against human A549 cells assessed as reduction in cell viability measured after 72 hrs; type: functional, cell-based; details: A549, 72 h
# [17] = Toxicity in BALB/c mouse xenografted with human MV4-11 cells assessed as animal's mortality at 7.5 to 15 mg/kg, iv qd; type: organism-based; details: in vivo, dose 7.5-15 mg/kg
# [18] = target: Cyclin-dependent kinase 9 (Homo sapiens) (UniProt P50750); assay: Inhibition of CDK9 in human MV4-11 cells assessed as reduction in Mcl-1 protein expression incubated for 12 hrs by western blot analysis; type: cell-based; details: dose 0.1-4 µM
# [19] = target: CDK2/Cyclin A2 (Homo sapiens, UniProt P24941); assay: Inhibition of CDK2/CyclinA2 (unknown origin) by ADP-Glo assay; type: protein-complex assay
# [20] = system: HCT-116; assay: Antiproliferative activity against human HCT-116 cells assessed as reduction in cell viability measured after 72 hrs; type: functional, cell-based; details: HCT-116, 72 h
# [21] = system: MV4-11; assay: Induction of cell cycle arrest in human MV4-11 cells assessed as accumulation of cells at G0/G1 phase at 0.8 uM incubated fo 36 hrs by propidium iodide staining based flow cytometry (reference value: 64%); type: functional
# [22] = system: MV4-11; assay: Induction of apoptosis in human MV4-11 cells assessed as early apoptotic cells at 0.5 uM incubated for 24 hrs by AnnexinV-FITC/PI staining based flow cytometry (reference value: 1.42%); type: functional
# [23] = system: SW480; assay: Antiproliferative activity against human SW480 cells assessed as reduction in cell viability measured after 72 hrs; type: functional, cell-based; details: SW480, 72 h
# [24] = target: Rho-associated protein kinase 2 (Homo sapiens) (UniProt O75116); assay: Inhibition of wild type partial length human ROCK2 (1 to 431 residues) expressed in mammalian expression system at 1 uM by KINOMEscan analysis
# [25] = system: MV4-11; assay: Induction of apoptosis in human MV4-11 cells assessed as viable cells at 0.1 uM incubated for 24 hrs by AnnexinV-FITC/PI staining based flow cytometry (reference value: 93.4%); type: functional; details: read-out: Activity
# [26] = system: MV4-11; assay: Induction of cell cycle arrest in human MV4-11 cells assessed as accumulation of cells at G2/M phase at 0.4 uM incubated fo 36 hrs by propidium iodide staining based flow cytometry (reference value: 9.5%); type: functional
# [27] = system: MV4-11; assay: Induction of apoptosis in human MV4-11 cells assessed as early apoptotic cells at 0.1 uM incubated for 24 hrs by AnnexinV-FITC/PI staining based flow cytometry (reference value: 1.42%); type: functional
# [28] = system: MV4-11; assay: Induction of apoptosis in human MV4-11 cells assessed as necrotic cells at 0.1 uM incubated for 24 hrs by AnnexinV-FITC/PI staining based flow cytometry (reference value: 0%); type: functional
# [29] = Inhibition of CDK1/CyclinA2 (unknown origin) by ADP-Glo assay; parameters: species or system Homo sapiens
# [30] = target: Cyclin-dependent kinase 9 (Homo sapiens) (UniProt P50750); assay: Inhibition of CDK9 in human MV4-11 cells assessed as reduction in Mcl-1 mRNA expression at 0.1 to 2 uM incubated for 12 hrs by qPCR analysis; type: cell-based; details: dose 0.1-2 µM
# [31] = system: MOLM-13; assay: Antiproliferative activity against human MOLM-13 cells assessed as reduction in cell viability measured after 72 hrs; type: functional, cell-based; details: MOLM-13, 72 h
# [32] = Toxicity in BALB/c mouse xenografted with human MV4-11 cells assessed as effect on body weight at 7.5 to 15 mg/kg, iv qd; type: organism-based; details: in vivo, dose 7.5-15 mg/kg
# [33] = system: MV4-11; assay: Induction of apoptosis in human MV4-11 cells assessed as viable cells at 4 uM incubated for 24 hrs by AnnexinV-FITC/PI staining based flow cytometry (reference value: 93.4%); type: functional; details: read-out: Activity
# [34] = system: MV4-11; assay: Induction of apoptosis in human MV4-11 cells assessed as viable cells at 1 uM incubated for 24 hrs by AnnexinV-FITC/PI staining based flow cytometry (reference value: 93.4%); type: functional; details: read-out: Activity
# [35] = system: MV4-11; assay: Induction of apoptosis in human MV4-11 cells assessed as early apoptotic cells at 4 uM incubated for 24 hrs by AnnexinV-FITC/PI staining based flow cytometry (reference value: 1.42%); type: functional
# [36] = Cytotoxicity against human HEK293 cells assessed as reduction in cell viability measured after 72 hrs; type: toxicity, cell-based
# [37] = target: Cyclin-dependent kinase 7 (Homo sapiens) (UniProt P50613); assay: Inhibition of wild type full length human CDK7 (1 to 344 esidues) expessed in mammalian expression system at 1 uM by KINOMEscan analysis
# Sequence of Cyclin-dependent kinase 7 (Homo sapiens) (P50613 whole entry): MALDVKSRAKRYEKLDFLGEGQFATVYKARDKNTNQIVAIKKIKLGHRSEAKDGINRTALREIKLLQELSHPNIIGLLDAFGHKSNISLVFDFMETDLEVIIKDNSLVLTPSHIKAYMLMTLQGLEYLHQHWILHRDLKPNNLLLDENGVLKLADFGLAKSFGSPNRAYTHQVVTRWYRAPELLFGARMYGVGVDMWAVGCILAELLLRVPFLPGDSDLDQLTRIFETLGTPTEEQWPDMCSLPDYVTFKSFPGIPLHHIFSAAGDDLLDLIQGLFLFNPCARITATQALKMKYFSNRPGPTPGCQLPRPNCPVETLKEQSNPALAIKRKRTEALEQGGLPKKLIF
# Sequence of Cyclin-dependent kinase 9 (Homo sapiens) (P50750 whole entry, the tested form may be a part): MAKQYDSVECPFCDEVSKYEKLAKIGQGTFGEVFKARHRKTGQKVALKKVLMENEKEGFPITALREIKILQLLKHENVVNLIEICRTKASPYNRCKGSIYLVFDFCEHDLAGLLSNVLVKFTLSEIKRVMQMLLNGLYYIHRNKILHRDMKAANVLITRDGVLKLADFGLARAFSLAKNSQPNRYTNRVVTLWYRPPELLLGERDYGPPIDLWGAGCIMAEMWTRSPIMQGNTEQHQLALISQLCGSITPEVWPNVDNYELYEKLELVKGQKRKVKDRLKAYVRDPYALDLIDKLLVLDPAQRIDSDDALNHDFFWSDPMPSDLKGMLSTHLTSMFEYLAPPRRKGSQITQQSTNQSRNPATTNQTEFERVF
# Sequence of Cyclin-dependent kinase 4/cyclin D1 (P11802 whole entry): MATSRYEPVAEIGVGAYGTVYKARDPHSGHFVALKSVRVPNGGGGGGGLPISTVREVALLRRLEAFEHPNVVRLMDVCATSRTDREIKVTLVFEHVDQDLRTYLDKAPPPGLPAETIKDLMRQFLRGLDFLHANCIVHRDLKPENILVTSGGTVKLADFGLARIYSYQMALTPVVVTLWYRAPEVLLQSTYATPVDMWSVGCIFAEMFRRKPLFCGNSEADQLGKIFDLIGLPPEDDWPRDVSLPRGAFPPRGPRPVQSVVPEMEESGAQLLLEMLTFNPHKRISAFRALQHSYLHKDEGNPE
# Sequence of Cyclin-dependent kinase 4/cyclin D1 (P24385 whole entry, further chain): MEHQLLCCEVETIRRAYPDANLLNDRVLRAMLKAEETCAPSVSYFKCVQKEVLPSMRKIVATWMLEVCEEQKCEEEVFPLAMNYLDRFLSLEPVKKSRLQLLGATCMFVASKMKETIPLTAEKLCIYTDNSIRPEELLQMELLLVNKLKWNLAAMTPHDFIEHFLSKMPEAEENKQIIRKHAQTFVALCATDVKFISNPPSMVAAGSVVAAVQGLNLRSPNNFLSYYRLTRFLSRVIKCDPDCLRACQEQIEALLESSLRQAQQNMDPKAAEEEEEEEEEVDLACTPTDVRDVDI
# Sequence of CDK7/Cyclin H/MNAT1 (P51946 whole entry): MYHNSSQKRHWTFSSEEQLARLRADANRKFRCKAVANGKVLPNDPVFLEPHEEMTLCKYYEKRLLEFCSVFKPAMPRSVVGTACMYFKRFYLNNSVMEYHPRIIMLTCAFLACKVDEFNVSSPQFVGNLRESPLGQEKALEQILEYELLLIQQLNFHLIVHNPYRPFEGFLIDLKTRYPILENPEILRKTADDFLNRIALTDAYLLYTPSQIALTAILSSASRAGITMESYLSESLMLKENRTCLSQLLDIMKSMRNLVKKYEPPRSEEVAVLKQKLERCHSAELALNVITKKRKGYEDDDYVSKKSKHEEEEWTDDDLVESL
# Sequence of CDK7/Cyclin H/MNAT1 (P50613 whole entry): as the sequence (P50613 whole entry) above
# Sequence of CDK7/Cyclin H/MNAT1 (P51948 whole entry, further chain): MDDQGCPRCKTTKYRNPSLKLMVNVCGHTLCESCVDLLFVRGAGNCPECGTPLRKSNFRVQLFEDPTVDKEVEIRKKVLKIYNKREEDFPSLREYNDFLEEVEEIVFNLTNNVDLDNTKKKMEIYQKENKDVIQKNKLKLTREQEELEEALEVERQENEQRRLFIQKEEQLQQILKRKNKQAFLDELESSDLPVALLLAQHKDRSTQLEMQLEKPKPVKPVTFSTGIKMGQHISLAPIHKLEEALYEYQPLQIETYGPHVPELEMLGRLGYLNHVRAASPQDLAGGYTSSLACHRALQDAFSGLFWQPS
# Sequence of CDK9/cyclin T1 (O60563 whole entry): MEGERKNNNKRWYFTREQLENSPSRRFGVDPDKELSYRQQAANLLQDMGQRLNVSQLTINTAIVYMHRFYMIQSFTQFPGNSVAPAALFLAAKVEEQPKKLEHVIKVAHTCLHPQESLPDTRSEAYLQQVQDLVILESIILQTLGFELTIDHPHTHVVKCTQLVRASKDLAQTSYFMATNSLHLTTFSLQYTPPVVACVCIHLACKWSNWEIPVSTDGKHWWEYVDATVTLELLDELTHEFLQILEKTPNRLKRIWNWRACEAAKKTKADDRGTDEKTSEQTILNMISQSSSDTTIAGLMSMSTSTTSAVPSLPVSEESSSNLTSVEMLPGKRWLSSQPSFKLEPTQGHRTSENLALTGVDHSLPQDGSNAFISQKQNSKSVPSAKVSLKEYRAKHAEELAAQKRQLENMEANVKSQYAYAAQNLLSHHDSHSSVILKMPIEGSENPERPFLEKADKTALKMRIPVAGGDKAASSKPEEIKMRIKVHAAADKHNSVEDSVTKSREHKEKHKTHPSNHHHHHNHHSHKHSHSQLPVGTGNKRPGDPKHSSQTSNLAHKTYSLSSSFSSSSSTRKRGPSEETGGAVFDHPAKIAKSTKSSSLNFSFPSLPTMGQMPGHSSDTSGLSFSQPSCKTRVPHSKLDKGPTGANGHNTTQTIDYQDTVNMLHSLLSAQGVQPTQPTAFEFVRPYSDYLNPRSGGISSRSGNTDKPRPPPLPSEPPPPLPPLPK
# Sequence of CDK9/cyclin T1 (P50750 whole entry): as the sequence (P50750 whole entry, the tested form may be a part) above
# Sequence of Dual specificity mitogen-activated protein kinase kinase 5 (Homo sapiens) (Q13163 whole entry, the tested form may be a part): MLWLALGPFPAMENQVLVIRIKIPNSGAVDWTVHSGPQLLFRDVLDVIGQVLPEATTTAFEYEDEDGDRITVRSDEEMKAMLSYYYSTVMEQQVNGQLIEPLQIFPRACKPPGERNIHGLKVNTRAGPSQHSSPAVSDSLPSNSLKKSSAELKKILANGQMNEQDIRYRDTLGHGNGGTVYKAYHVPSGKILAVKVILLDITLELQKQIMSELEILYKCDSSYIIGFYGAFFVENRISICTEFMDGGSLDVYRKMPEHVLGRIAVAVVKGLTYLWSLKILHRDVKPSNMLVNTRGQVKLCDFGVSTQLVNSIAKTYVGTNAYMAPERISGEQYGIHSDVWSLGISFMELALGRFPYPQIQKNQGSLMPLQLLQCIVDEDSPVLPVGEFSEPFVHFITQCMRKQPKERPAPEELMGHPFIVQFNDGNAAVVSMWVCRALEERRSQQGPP
# Sequence of Rho-associated protein kinase 2 (Homo sapiens) (O75116 whole entry, looked up, the tested form may be a part): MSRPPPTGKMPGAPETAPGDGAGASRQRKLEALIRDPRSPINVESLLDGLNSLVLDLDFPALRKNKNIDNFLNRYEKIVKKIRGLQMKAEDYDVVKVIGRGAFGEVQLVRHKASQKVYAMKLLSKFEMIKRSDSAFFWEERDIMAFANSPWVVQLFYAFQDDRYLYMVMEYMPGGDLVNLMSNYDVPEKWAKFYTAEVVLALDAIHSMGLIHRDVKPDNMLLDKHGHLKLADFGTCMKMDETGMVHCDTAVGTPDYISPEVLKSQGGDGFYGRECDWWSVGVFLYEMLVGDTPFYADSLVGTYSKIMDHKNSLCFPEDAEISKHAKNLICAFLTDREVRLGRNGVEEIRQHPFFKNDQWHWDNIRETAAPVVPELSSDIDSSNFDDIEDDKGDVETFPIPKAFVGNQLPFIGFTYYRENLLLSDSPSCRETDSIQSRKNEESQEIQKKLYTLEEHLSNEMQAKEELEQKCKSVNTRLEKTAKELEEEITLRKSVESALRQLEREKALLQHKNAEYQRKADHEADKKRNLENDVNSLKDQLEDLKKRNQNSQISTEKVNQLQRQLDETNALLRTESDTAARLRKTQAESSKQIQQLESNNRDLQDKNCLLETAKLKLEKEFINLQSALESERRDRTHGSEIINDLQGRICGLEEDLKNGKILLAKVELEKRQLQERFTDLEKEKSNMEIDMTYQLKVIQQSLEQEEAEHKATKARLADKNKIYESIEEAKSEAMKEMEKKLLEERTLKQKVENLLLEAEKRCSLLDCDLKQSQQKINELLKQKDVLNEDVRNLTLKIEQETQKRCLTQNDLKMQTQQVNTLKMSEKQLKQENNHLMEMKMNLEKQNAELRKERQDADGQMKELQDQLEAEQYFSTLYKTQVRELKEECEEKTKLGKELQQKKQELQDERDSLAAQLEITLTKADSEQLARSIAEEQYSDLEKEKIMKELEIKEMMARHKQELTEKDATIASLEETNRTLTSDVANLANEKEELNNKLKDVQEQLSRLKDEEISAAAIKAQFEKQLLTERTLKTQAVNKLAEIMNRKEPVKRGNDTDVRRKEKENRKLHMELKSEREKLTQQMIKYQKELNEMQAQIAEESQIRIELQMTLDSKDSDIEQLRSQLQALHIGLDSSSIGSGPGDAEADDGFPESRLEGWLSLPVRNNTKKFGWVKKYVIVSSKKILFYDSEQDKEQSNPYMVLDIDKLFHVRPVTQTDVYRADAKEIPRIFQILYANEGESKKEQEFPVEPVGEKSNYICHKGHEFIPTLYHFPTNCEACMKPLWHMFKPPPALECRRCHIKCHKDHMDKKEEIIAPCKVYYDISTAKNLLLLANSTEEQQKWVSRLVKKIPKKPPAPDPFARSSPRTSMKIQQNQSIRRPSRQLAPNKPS
smiles,measurement,setting,value
COc1cc(O)c2c(=O)cc(-c3ccc(N4CCN(C)CC4)cc3)oc2c1C1=CCN(C)CC1,IC50,[1],53 nM
same,solubility,[2],120 µg/mL
same,viability at 0.5 µM,[3],87.8%
same,Activity,[4],12.8%
same,inhibition in vivo at 15 mg/kg,[5],65%
same,IC50,[6],210 nM
same,inhibition,[7],Dose-Dependent Effect
same,inhibition,[8],9.9%
same,IC50,[9],60 nM
same,IC50,[10],6.7 nM
same,Activity,[11],0.01%
same,inhibition,[12],0%
same,IC50,[13],536 nM
same,Stability,[14],Stable
same,IC50,[15],410 nM
same,IC50,[16],700 nM
same,Activity,[17],Non-Toxic
same,inhibition,[18],Dose-Dependent Effect
same,IC50,[19],533 nM
same,IC50,[20],20 nM
same,Activity,[21],84.2%
same,Activity,[22],1.96%
same,IC50,[23],3450 nM
same,inhibition,[24],6%
same,viability at 0.1 µM,[25],91.5%
same,Activity,[26],6%
same,Activity,[27],1.46%
same,Activity,[28],0.02%
same,IC50,[29],4180 nM
same,inhibition,[30],Active
same,IC50,[31],160 nM
same,Activity,[32],Non-Toxic
same,viability at 4 µM,[33],7.98%
same,viability at 1 µM,[34],69.1%
same,Activity,[35],70.3%
same,IC50 at 72 h,[36],10700 nM
same,inhibition,[37],4.8%

# Reference: ChEMBL document CHEMBL5634084, “Design and optimization of selective and potent CDK9 inhibitors with flavonoid scaffold for the treatment of acute myeloid leukemia” (Eur J Med Chem, 2023)
